According to patent US11352334B2, “3-(5-chloro-2-oxobenzo[d]oxazol-3(2H)-yl) propanoic acid derivatives as KMO inhibitors” (THE UNIVERSITY COURT OF THE UNIVERSITY OF EDINBURGH, priority 2013, dated 2022):

Target: T1, human KMO (Homo sapiens, UniProt O15229)
T1 construct: Full length human KMO was amplified by PCR from pcDNA5/FRT/V5-His-TOPO/hKMO; made in house; host or cells: Spodoptera frugiperda Sf9 cells (baculovirus); purified membrane fraction used
Assay: KMO MS Rapidfire assay
Assay type: biochemical
Details: human KMO-membranes from Sf9 cells, 10 μM Kynurenine, 200 μM NADPH, 3-HK detected by MS
Description: pFastbac1 GST-KMO was transposed into the baculovirus genome using the BAC-to-BAC technology (Invitrogen) and bacmid DNA was prepared and transfected into Spodoptera frugiperda (Sf9) cells using Cellfectin II (Invitrogen).
Cells were harvested after 48 hours and disrupted by blending in 50 mM Hepes, pH 7.4, 1 mM EDTA buffer containing protease inhibitors. A low speed spin (400 g) was used to remove cell debris, followed by a high speed spin (75 000 g) to pellet the membranes. The membranes were purified in a discontinuous sucrose density gradient by re-suspending in 10% (w/v) sucrose and layering over 40% (w/v) sucrose, both in the above buffer. This was centrifuged at 150 000 g and the purified membranes were taken from the interface, collected by centrifugation at 100 000 g, resuspended in buffer and aliquoted for storage at −80° C.
11 point, 3-fold serial dilutions of test compounds were prepared in DMSO and 100 nL of these solutions were dispensed into 384-well V-base polypropylene plates (Greiner Bio-one, Stonehouse, UK) using an Echo 555 acoustic dispenser (Labcyte, Sunnyvale, Calif.). This gave a final assay concentration range between 100 μM and 1.7 nM in 10 μL final assay volume (see below). 100 nL DMSO was dispensed into columns 6 and 18 for high and low controls, respectively, with prior inactivation of the enzyme in column 18 by pre-dispense of 30 μL of 0.5% (v/v) TFA. […]

T1 sequence (O15229 whole entry): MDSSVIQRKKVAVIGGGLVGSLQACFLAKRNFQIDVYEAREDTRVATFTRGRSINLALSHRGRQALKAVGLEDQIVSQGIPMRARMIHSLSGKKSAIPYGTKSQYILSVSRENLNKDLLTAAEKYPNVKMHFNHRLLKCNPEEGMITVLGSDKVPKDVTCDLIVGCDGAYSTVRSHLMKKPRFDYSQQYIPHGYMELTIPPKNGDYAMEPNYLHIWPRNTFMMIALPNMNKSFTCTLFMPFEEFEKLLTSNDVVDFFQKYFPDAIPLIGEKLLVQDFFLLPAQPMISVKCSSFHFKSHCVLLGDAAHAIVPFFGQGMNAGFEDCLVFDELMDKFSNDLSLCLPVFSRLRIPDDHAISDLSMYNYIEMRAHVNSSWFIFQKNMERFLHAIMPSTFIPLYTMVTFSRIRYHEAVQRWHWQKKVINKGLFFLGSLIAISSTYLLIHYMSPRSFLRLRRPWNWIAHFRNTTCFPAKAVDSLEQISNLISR

## Cc1cc2oc(=O)n(CCC(=O)O)c2cc1Cl [Example 1, 3-(5-Chloro-6-methyl-2-oxobenzo[d]oxazol-3(2H)-yl)propanoic Acid]
  median pIC50: 7.9
